Experimental data published in paper PMC7024175, “In Depth Analysis of Kinase Cross Screening Data to Identify CAMKK2 Inhibitory Scaffolds” (Molecules, 2020).
pIC50: −log10 of the molar value. Where two headings read alike, the source gives them in different places.

Molecular target: T1, CAMKK2 (Homo sapiens, UniProt Q96RR4)
T1 construct: made in house
Assay: CAMKK2 enzyme assay (radiometric, CaMKKtide)
Type: biochemical
Details: for remaining activity at 0.01 µM / remaining activity at 0.1 µM / remaining activity at 1 µM: read-out: PoC (activity remaining)

[1] = 8-point full dose response, read-out: IC50

T1 sequence (Q96RR4 whole entry): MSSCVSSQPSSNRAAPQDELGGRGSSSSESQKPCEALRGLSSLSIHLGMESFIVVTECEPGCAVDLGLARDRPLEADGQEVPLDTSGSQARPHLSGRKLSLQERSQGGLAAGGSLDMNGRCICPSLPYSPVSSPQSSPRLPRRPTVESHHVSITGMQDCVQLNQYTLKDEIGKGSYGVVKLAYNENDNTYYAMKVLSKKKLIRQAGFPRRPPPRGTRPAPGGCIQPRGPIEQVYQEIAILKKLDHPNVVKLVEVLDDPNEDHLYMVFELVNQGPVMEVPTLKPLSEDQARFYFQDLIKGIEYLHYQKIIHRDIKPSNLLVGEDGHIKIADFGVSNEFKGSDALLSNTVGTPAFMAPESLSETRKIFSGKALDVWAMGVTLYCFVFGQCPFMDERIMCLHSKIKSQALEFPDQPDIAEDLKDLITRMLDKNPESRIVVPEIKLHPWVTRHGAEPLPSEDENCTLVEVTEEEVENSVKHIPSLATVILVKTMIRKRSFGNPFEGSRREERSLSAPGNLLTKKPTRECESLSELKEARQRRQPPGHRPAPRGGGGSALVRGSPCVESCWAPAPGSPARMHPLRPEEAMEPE

| Compound | remaining activity at 0.01 µM (0.01 µM inhibitor) [%] | remaining activity at 0.1 µM (0.1 µM inhibitor) [%] | remaining activity at 1 µM (1.0 µM inhibitor) [%] | PoC (activity remaining) (0.01 µM inhibitor) [%] | PoC (activity remaining) (1.0 µM inhibitor) [%] | further results |
| --- | --- | --- | --- | --- | --- | --- |
| COc1cc(N2CCC(N(C)C)CC2)ccc1Nc1ncc(Cl)c(Nc2ccccc2P(C)(C)=O)n1 [ALK-IN-1] | 62 | 34 | 3 | – | – | pIC50 [1]: 7.55 |
| COc1cc(N2CCC(N3CCN(C)CC3)CC2)ccc1Nc1ncc(Cl)c(Nc2ccccc2P(C)(C)=O)n1 [AP26113] | – | – | – | – | – | remaining activity at 0.01 µM: 60%; remaining activity at 0.1 µM: 20%; remaining activity at 1 µM: 2% |
| COc1cc(N2CCC(N)CC2)ccc1Nc1ncc(Cl)c(-c2c[nH]c3ccccc23)n1 [AZD 3463] | – | – | – | 103 | 26 | PoC (activity remaining) (0.1 µM inhibitor): 74%; pIC50 [1]: 6.73 |
| CN1CC[C@H](c2c(O)cc(O)c3c(=O)cc(-c4ccccc4Cl)oc23)[C@H](O)C1 [Alvocidib] | 102 | 62 | 29 | – | – | – |
| CC(C)[C@H](CO)Nc1nc(Nc2cc(N)cc(Cl)c2)c2ncn(C(C)C)c2n1 [Aminopurvalanol] | 100 | 80 | 22 | – | – | – |
| CCN1CCN(c2ccc(Nc3cc(N(C)C(=O)Nc4c(Cl)c(OC)cc(OC)c4Cl)ncn3)cc2)CC1 [BGJ 398] | 100 | 99 | 96 | – | – | – |
| O=C1Nc2cc(Br)ccc2/C1=C1/Nc2ccccc2/C1=N\O [BIO] | – | – | – | 102 | 89 | PoC (activity remaining) (0.1 µM inhibitor): 100% |
| Cc1cc2c(F)c(Oc3ncnn4cc(OC[C@@H](C)O)c(C)c34)ccc2[nH]1 [Brivanib] | 101 | 100 | 100 | – | – | – |
| Nc1nc(Nc2ccc(S(N)(=O)=O)cc2)nn1C(=S)Nc1c(F)cccc1F [CDK 1/2 Inhibitor III] | – | – | – | – | – | pIC50: 7.72; remaining activity at 0.01 µM: 69%; remaining activity at 0.1 µM: 17%; remaining activity at 1 µM: 3% |
| COCCOc1ccc2c(c1)ncn2-c1ccc2cccc(N3CCC(N)CC3)c2n1 [CP 673451] | 88 | 46 | 17 | – | – | pIC50 [1]: 7.14 |
| COc1cc(N2CCOCC2)ccc1Nc1ncc(F)c(Nc2ccccc2NS(C)(=O)=O)n1 [CZC 25146] | – | – | – | 96 | 93 | PoC (activity remaining) (0.1 µM inhibitor): 101% |
| CC1(COc2ccc3c(c2)ncn3-c2ccc3cccc(N4CCC(N)CC4)c3n2)COC1 [Crenolanib] | 118 | 92 | 47 | – | – | – |
| c1cc(-c2cnn3cc(-c4ccc(OCCN5CCCCC5)cc4)cnc23)ccn1 [Dorsomorphin] | 100 | 96 | 58 | – | – | – |
| O=C(Nc1nc2cccc(-c3ccc(CN4CCS(=O)(=O)CC4)cc3)n2n1)C1CC1 [Filgotinib] | 96 | 86 | 72 | – | – | – |
| CCc1nc(C(N)=O)c(Nc2ccc(N3CCC(N4CCN(C)CC4)CC3)c(OC)c2)nc1NC1CCOCC1 [Gilteritinib] | 84 | 74 | 18 | – | – | pIC50 [1]: 6.69 |
| Cn1c2ccccc2c2c3c(c4c5ccccc5n(CCC#N)c4c21)CNC3=O [Go6976] | 97 | 92 | 80 | – | – | – |
| CCS(=O)(=O)Nc1ccc2c(c1)/C(=C(/Nc1ccc(CN3CCCCC3)cc1)c1ccccc1)C(=O)N2 [Hesperadin] | 99 | 95 | 84 | – | – | – |
| COC(=O)[C@@]1(O)C[C@H]2O[C@]1(C)n1c3ccccc3c3c4c(c5c6ccccc6n2c5c31)C(=O)NC4 [K252a] | – | – | – | 99 | 31 | – |
| c1ccc2c(-c3cnn4cc(-c5ccc(N6CCNCC6)cc5)cnc34)ccnc2c1 [LDN 193189] | – | – | – | 68 | 50 | PoC (activity remaining) (0.1 µM inhibitor): 62%; pIC50 [1]: 6.84 |
| C[C@]12O[C@H](C[C@]1(O)CO)n1c3ccccc3c3c4c(c5c6ccccc6n2c5c31)CNC4=O [Lestaurtinib] | – | – | – | – | – | remaining activity at 0.01 µM: 64%; remaining activity at 0.1 µM: 33%; remaining activity at 1 µM: 3% |
| Cc1ncc(CCCN(C)C)cc1Nc1ncc2c(n1)-c1ccc(C(F)(F)F)cc1NC(=S)C2 [MLN 0905] | – | – | – | 99 | 86 | PoC (activity remaining) (0.1 µM inhibitor): 95% |
| CO[C@@H]1[C@H](N(C)C(=O)c2ccccc2)C[C@H]2O[C@]1(C)n1c3ccccc3c3c4c(c5c6ccccc6n2c5c31)C(=O)NC4 [Midostaurin] | – | – | – | – | – | remaining activity at 0.01 µM: 97%; remaining activity at 0.1 µM: 82%; remaining activity at 1 µM: 38% |
| CNC(=O)c1nn(C)c2c1C(C)(C)Cc1cnc(Nc3ccc(N4CCN(C)CC4)cc3)nc1-2 [Milciclib] | 107 | 105 | 76 | – | – | – |
| CC(=O)c1cnc2ccc(-c3cc(Cl)c(O)c(Cl)c3)nc2c1N[C@H]1CC[C@H](CN(C)C)CC1 [OTSSP167] | 84 | 49 | 0 | – | – | pIC50 [1]: 7.07 |
| C1=C/COCc2cc(ccc2OCCN2CCCC2)Nc2nccc(n2)-c2cccc(c2)COC/1 [Pacritinib] | 96 | 78 | 31 | – | – | – |
| CCOc1cc2ncc(C#N)c(Nc3ccc(F)c(Cl)c3)c2cc1NC(=O)/C=C/CN(C)C [Pelitinib] | 100 | 84 | 60 | – | – | – |
| CNC(=O)c1cc(Oc2ccc(NC(=O)Nc3cc(C(C)(C)C)nn3-c3ccc4ncccc4c3)c(F)c2)ccn1 [Rebasitinib] | – | – | – | 95 | 81 | PoC (activity remaining) (0.1 µM inhibitor): 93% |
| Cn1cc(C2=C(c3cn(CCCSC(=N)N)c4ccccc34)C(=O)NC2=O)c2ccccc21 [Ro 31-8220] | – | – | – | 100 | 85 | PoC (activity remaining) (0.1 µM inhibitor): 100% |
| O=C1NC(=NCc2cccs2)S/C1=C\c1ccc2ncccc2c1 [Ro 3306] | – | – | – | 94 | 88 | PoC (activity remaining) (0.1 µM inhibitor): 94% |
| O=C1NC(=O)c2c1c1c3ccccc3n3c1c1c2c2ccccc2n1C1CCC3O1 [SB 218078] | – | – | – | 98 | 64 | PoC (activity remaining) (0.1 µM inhibitor): 86% |

Continued, in another order:

| remaining activity at 0.01 µM (0.01 µM inhibitor) [%] | remaining activity at 0.1 µM (0.1 µM inhibitor) [%] | remaining activity at 1 µM (1.0 µM inhibitor) [%] | PoC (activity remaining) (0.01 µM inhibitor) [%] | PoC (activity remaining) (1.0 µM inhibitor) [%] | Compound | further results |
| --- | --- | --- | --- | --- | --- | --- |
| 104 | 94 | 75 | – | – | CC[C@@H]1C(=O)N(C)c2cnc(Nc3ccc(C(=O)N[C@H]4CC[C@H](N5CCN(CC6CC6)CC5)CC4)cc3OC)nc2N1C(C)C [BI6727] | – |
| 97 | 80 | 33 | – | – | O=C(NCCCNc1nc(Nc2cccc(NC(=O)N3CCCC3)c2)ncc1I)c1cccs1 [BX795] | – |
| – | – | – | 100 | 26 | O=C(Nc1cccc(Nc2ncc(Br)c(NCCc3cnc[nH]3)n2)c1)N1CCCC1 [BX912] | PoC (activity remaining) (0.1 µM inhibitor): 90% |
| 98 | 101 | 96 | – | – | Cc1c[nH]c(-c2cnc(NCCNc3ccc(C#N)cn3)nc2-c2ccc(Cl)cc2Cl)n1 [CHIR99021] | – |
| 95 | 96 | 92 | – | – | C[C@@H](Oc1cc(-n2cnc3ccc(CN4CCN(C)CC4)cc32)sc1C(N)=O)c1ccccc1C(F)(F)F [GSK461364] | – |
| 92 | 81 | 34 | – | – | O=C1NC(=O)/C(=C/c2ccc3nccc(-c4ccncc4)c3c2)S1 [GSK1059615] | – |
| 96 | 84 | 42 | – | – | O=C(c1ccc(/C=C/c2n[nH]c3ccccc23)cc1)N1CCNCC1 [KW2449] | – |
| 101 | 99 | 99 | – | – | C=CCn1c(=O)c2cnc(Nc3ccc(N4CCN(C)CC4)cc3)nc2n1-c1cccc(C(C)(C)O)n1 [MK1775] | – |
| – | – | – | 92 | 35 | O=C(NCCCNc1nc(Nc2cccc(CN3CCOCC3)c2)ncc1C1CC1)C1CCC1 [MRT67307] | PoC (activity remaining) (0.1 µM inhibitor): 86% |
| 95 | 78 | 71 | – | – | Cc1nc(Nc2[nH]nc3c2CN(C(=O)N[C@H](CN(C)C)c2ccccc2)C3(C)C)c2sccc2n1 [PF3758309] | – |
| – | – | – | 92 | 20 | CC(=O)NCC(=O)N1[C@@H]2CC[C@H]1c1ccc(Nc3ncc(C(F)(F)F)c(NC4CCC4)n3)cc12 [PF03814735] | PoC (activity remaining) (0.1 µM inhibitor): 70%; pIC50 [1]: 6.64 |
| 109 | 93 | 67 | – | – | Cc1[nH]c(/C=C2\C(=O)Nc3ccc(S(=O)(=O)Cc4c(Cl)cccc4Cl)cc32)c(C)c1C(=O)N1CCC[C@@H]1CN1CCCC1 [PHA665752] | – |
| 95 | 86 | 71 | – | – | CN(C)S(=O)(=O)c1ccc2c(c1)/C(=C/c1cc3c([nH]1)CCCC3)C(=O)N2 [SU6656] | – |
| – | – | – | 104 | 90 | CNC(=O)c1ccccc1Nc1nc(Nc2ccc(N3CCOCC3)cc2OC)ncc1Cl [TAE226] | PoC (activity remaining) (0.1 µM inhibitor): 97% |
| 97 | 87 | 42 | – | – | COc1cc(N2CCC(N3CCN(C)CC3)CC2)ccc1Nc1ncc(Cl)c(Nc2ccccc2S(=O)(=O)C(C)C)n1 [TAE684] | – |
| – | – | – | 92 | 82 | N#Cc1c(Oc2ccc(F)c(NC(=O)Cc3cccc(C(F)(F)F)c3)c2)ccc2nc(NC(=O)C3CC3)sc12 [TAK632] | PoC (activity remaining) (0.1 µM inhibitor): 87% |
| 94 | 65 | 26 | – | – | CC(C)c1cc(CNc2nc(Nc3cc(C4CC4)[nH]n3)cc(N3CCN(C)CC3)n2)on1 [XL228] | – |
